Experimental data as given in patent US7737166B2, “Antifungal bicyclic hetero ring compounds” (Daiichi Sankyo Company, Limited, priority 2005, dated 2010).
≈ marks a conversion by molar mass, not a printed value.

How the values were obtained:
Test in all cases: Antifungal activity (GI80), growth inhibition in YPD20 medium by absorbance at 600 nm
Format in all cases: cell-based
C. albicans ATCC MYA-573 = conditions: minimum concentration for at least 80% cell growth inhibition, 37° C., absorbance 600 nm; for IC80: Candida albicans, read-out: GI80 (μg/ml) C. albicans ATCC MYA-573
Description: (§1) The antifungal activity of the compounds of the invention was determined according to the method mentioned below.
(§2) An YPD20 medium (1% yeast extract, 2% peptone, 20% glucose) was used,
(§3) (2) Preparation of Cell Liquid for Inoculation:
(§4) Cells incubated overnight with Sabouraud dextrose agar at 30° C. were suspended in 0.1% Tween 80-added saline, and then added to a concentrated medium (1.33% yeast extract, 2.67% peptone, 13.33% glucose) so that the final cell concentration could be 5×10^3 cells/ml, thereby preparing a cell liquid for inoculation.
(§5) (3) Production of Chemical Dilution Plate:
(§6) A metered sample was dissolved in dimethyl sulfoxide, and a 2-fold dilution series was prepared using dimethyl sulfoxide. A chemical dilution of 2 μl each was added to a flat-bottom 96-well plate with 40% glucose (48 μl) put in each well, thereby producing a chemical dilution plate.
(§7) (4) Inoculation and Cultivation of Cell Liquid:
(§8) The cell liquid (150 μl) prepared in (2) was added to the chemical dilution plate produced in (3), followed by aerobic static cultivation at 37° C.
(§9) (5) Determination of Antifungal Activity (GI80 Value):
(§10) After cultivation for […], the plate was stirred, and its absorbance (600 nm) was measured. Based on the absorbance as the index, the minimum chemical concentration for at least 80% cell growth inhibition relative to the cell growth in the chemical-free well was computed as a GI80 value.

C. albicans ATCC90028 = conditions: 37° C., absorbance 600 nm; for IC80: Candida albicans, ATCC90028, minimum concentration for at least 80% cell growth inhibition, read-out: GI80 (μg/ml) C. albicans ATCC90028; for GI80 (μg/ml) C. albicans ATCC90028: minimum concentration for at least 80% cell growth inhibition
Description: as §1, §2, §3, §4, §5, §6, §7, §8, §9, §10

C. glabrata ATCC48435 = conditions: 37° C., absorbance 600 nm; for IC80: Nakaseomyces glabratus, ATCC48435, minimum concentration for at least 80% cell growth inhibition, read-out: GI80 (μg/ml) C. glabrata ATCC48435; for GI80 (μg/ml) C. glabrata ATCC48435: minimum concentration for at least 80% cell growth inhibition
Description: as §1, §2, §3, §4, §5, §6, §7, §8, §9, §10

Row | SMILES | IC80 (C. albicans ATCC MYA-573) [µg/mL] | IC80 (C. albicans ATCC90028) [µg/mL] | IC80 (C. glabrata ATCC48435) [µg/mL] | GI80 (μg/ml) C. albicans ATCC MYA-573 (C. albicans ATCC MYA-573) [µg/mL] | GI80 (μg/ml) C. albicans ATCC90028 (C. albicans ATCC90028) [µg/mL] | GI80 (μg/ml) C. glabrata ATCC48435 (C. glabrata ATCC48435) [µg/mL]
1 | CCOC(=O)[C@@H]1C[C@H]1c1nc2c(C#N)c(C)c(-c3ccccc3)c(N3CC[C@H](N(C)C)C3)c2o1 (relative stereo) [Example 112, Ethyl (1R*,2R*)-2-{4-cyano-7-[(3S)-3-(dimethylamino)pyrrolidin-1-yl]-5-methyl-6-phenyl-1,3-benzoxazol-2-yl}cyclopropanecarboxylate] | 0.063 (≈ 0.137 µM) | 0.032 (≈ 0.0698 µM) | 0.032 (≈ 0.0698 µM) |  |  | 
2 | Cc1c(-c2ccccc2)c(N2CC[C@H](N(C)C)C2)c2oc([C@@H]3C[C@H]3C(=O)N(C)C)nc2c1C#N (relative stereo) [Example 135, (1R*,2R*)-2-[4-Cyano-7-((S)-3-dimethylamino-pyrrolidinyl)-5-methyl-6-phenyl-benzoxazol-2-yl]-cyclopropanecarbonyldimethylamide] |  |  |  | 0.125 (≈ 0.273 µM) | 0.125 (≈ 0.273 µM) | 0.063 (≈ 0.138 µM)
3 | Cc1c(-c2ccccc2)c(N2CC[C@H](N(C)C)C2)c2oc(C(C)(C)COCc3ccccc3)nc2c1C#N [Example 13, 2-[2-(Benzyloxy)-1,1-dimethylethyl]-7-[(3S)-3-(dimethylamino)pyrrolidin-1-yl]-5-methyl-6-phenyl-1,3-benzoxazole-4-carbonitrile] | 0.125 (≈ 0.246 µM) | 0.063 (≈ 0.124 µM) | 0.032 (≈ 0.0629 µM) |  |  | 
4 | Cc1c(-c2ccccc2)c(N2CC[C@H](N(C)C)C2)c2oc(-c3ccco3)nc2c1C#N [Example 34, 7-[(3S)-3-(Dimethylamino)pyrrolidin-1-yl]-2-(2-furyl)-5-methyl-6-phenyl-1,3-benzoxazole-4-carbonitrile] | 0.25 (≈ 0.606 µM) | 0.25 (≈ 0.606 µM) | 0.032 (≈ 0.0776 µM) |  |  | 
5 | Cc1c(-c2ccccc2)c(N2CC[C@H](N(C)C)C2)c2oc(C(=O)N(C)CCO)nc2c1C#N [Example 49, 4-Cyano-7-[(3S)-3-(dimethylamino)pyrrolidin-1-yl]N-(2-hydroxyethyl)-N,5-dimethyl-6-phenyl-1,3-benzoxazole-2-carboxamide] | 0.5 (≈ 1.12 µM) | 0.5 (≈ 1.12 µM) | 0.063 (≈ 0.141 µM) |  |  | 
6 | Cc1c(-c2ccccc2)c(N2CC[C@H](N(C)C)C2)c2oc(C(=O)N(C)CC(=O)N(C)C)nc2c1C#N [Example 50, 4-Cyano-N-[2-(dimethylamino)-2-oxoethyl]-7-[(3S)-3-(dimethylamino)pyrrolidin-1-yl]-N,5-dimethyl-6-phenyl-1,3-benzoxazole-2-carboxamide] | 2 (≈ 4.09 µM) | 2 (≈ 4.09 µM) | 0.25 (≈ 0.512 µM) |  |  | 
7 | CN[C@H]1CCN(c2c(-c3csc(C)n3)c(C)c(C#N)c3nc(C(=O)N(C)C)oc23)C1 [Example 52] |  |  |  | 1 (≈ 2.36 µM) | 1 (≈ 2.36 µM) | 0.25 (≈ 0.589 µM)
8 | CC(=O)N(C)c1nc2c(C#N)c(C)c(-c3ccccc3)c(N3CC[C@H](N(C)C)C3)c2o1 [Example 54, N-{4-Cyano-7-[(3S)-3-(dimethylamino)pyrrolidin-1-yl]-5-methyl-6-phenyl-1,3-benzoxazol-2-yl}-N-methylacetamide] | 0.25 (≈ 0.599 µM) | 0.125 (≈ 0.299 µM) | 0.063 (≈ 0.151 µM) |  |  | 
9 | Cc1c(-c2ccccc2)c(N2CC[C@H](N(C)C)C2)c2oc(N(C)C)nc2c1C#N [Example 56, 2-(Dimethylamino)-7-[(3S)-3-(dimethylamino)pyrrolidin-1-yl]-5-methyl-6-phenyl-1,3-benzoxazole-4-carbonitrile] | 0.5 (≈ 1.28 µM) | 0.125 (≈ 0.321 µM) | 0.063 (≈ 0.162 µM) |  |  | 
10 | Cc1c(-c2ccccc2)c(N2CC[C@H](N(C)C)C2)c2oc(N(C)C(C)(C)C)nc2c1C#N [Example 62, 2-(N-tert-Butyl-N-methylamino)-7-[(3S)-3-(dimethylamino)pyrrolidin-1-yl]-5-methyl-6-phenyl-1,3-benzoxazole-4-carbonitrile] | 0.063 (≈ 0.146 µM) | 0.063 (≈ 0.146 µM) | 0.032 (≈ 0.0741 µM) |  |  | 
11 | Cc1c(-c2ccccc2)c(N2CC[C@H](N(C)C)C2)c2oc(N3CC(C(=O)O)C3)nc2c1C#N [Example 67, 1-{4-Cyano-7-[(3S)-3-(dimethylamino)pyrrolidin-1-yl]-5-methyl-6-phenyl-1,3-benzoxazol-2-yl}-azetidine-3-carboxylic acid] | > 4 | > 4 | 0.25 (≈ 0.561 µM) |  |  | 
12 | Cc1c(-c2ccccc2)c(N2CC[C@H](N(C)C)C2)c2oc(N(C)Cc3ncn[nH]3)nc2c1C#N [Example 72, 7-[(3S)-3-(Dimethylamino)pyrrolidin-1-yl]-5-methyl-2-[methyl(1H-1,2,4-triazol-5-ylmethyl)amino]-6-phenyl-1,3-benzoxazole-4-carbonitrile] | 0.5 (≈ 1.1 µM) | 0.5 (≈ 1.1 µM) | 0.125 (≈ 0.274 µM) |  |  | 
13 | Cc1c(-c2cc(F)cc(F)c2)c(N2CC[C@H](N(C)C)C2)c2oc(C3CC3)nc2c1C#N [Example 82, 2-Cyclopropyl-6-(3,5-difluorophenyl)-7-[(3S)-3-(dimethylamino)pyrrolidin-1-yl]-5-methyl-1,3-benzoxazole-4-carbonitrile] | 0.125 (≈ 0.296 µM) | 0.063 (≈ 0.149 µM) | 0.032 (≈ 0.0757 µM) |  |  | 
14 | Cc1c(-c2cccc(F)c2F)c(N2CC[C@H](N(C)C)C2)c2oc(C3CC3)nc2c1C#N [Example 83, 2-Cyclopropyl-6-(2,3-difluorophenyl)-7-[(3S)-3-(dimethylamino)pyrrolidin-1-yl]-5-methyl-1,3-benzoxazole-4-carbonitrile] | 0.5 (≈ 1.18 µM) | 0.5 (≈ 1.18 µM) | 0.125 (≈ 0.296 µM) |  |  | 
15 | Cc1c(-c2ccccc2)c(N2CC[C@H](N(C)C)C2)c2oc(-c3nccs3)nc2c1C#N [Example 93, 7-[(3S)-3-(Dimethylamino)pyrrolidin-1-yl]-5-methyl-6-phenyl-2-(1,3-thiazol-2-yl)-1,3-benzoxazole-4-carbonitrile] | 0.125 (≈ 0.291 µM) | 0.125 (≈ 0.291 µM) | 0.032 (≈ 0.0745 µM) |  |  | 
16 | Cc1c(-c2ccccc2)c(N2CC[C@H](N(C)C)C2)c2oc(C3CCC3)nc2c1C#N [Example 106, 2-Cyclobutyl-7-[(3S)-3-(dimethylamino)pyrrolidin-1-yl]-5-methyl-6-phenyl-1,3-benzoxazole-4-carbonitrile] | 0.125 (≈ 0.312 µM) | 0.063 (≈ 0.157 µM) | < 0.016 |  |  | 
17 | Cc1c(-c2ccccc2)c(N2CC[C@H](N(C)C)C2)c2oc(Cc3ccco3)nc2c1C#N [Example 122, 7-[(3S)-3-(Dimethylamino)pyrrolidin-1-yl]-2-(2-furylmethyl)-5-methyl-6-phenyl-1,3-benzoxazole-4-carbonitrile] | 0.5 (≈ 1.17 µM) | 0.5 (≈ 1.17 µM) | 0.125 (≈ 0.293 µM) |  |  | 
18 | CC(=O)NC1CN(c2nc3c(C#N)c(C)c(-c4ccccc4)c(N4CC[C@H](N(C)C)C4)c3o2)C1 [Example 126] |  |  |  | 0.5 (≈ 1.09 µM) | 0.5 (≈ 1.09 µM) | 0.125 (≈ 0.273 µM)
19 | Cc1c(-c2ccccc2)c(N2CC[C@H](N(C)C)C2)c2oc(N3CCCC3=O)nc2c1C#N [Example 129] |  |  |  | 0.5 (≈ 1.16 µM) | 0.25 (≈ 0.582 µM) | 0.063 (≈ 0.147 µM)
20 | CN[C@H]1CCN(c2c(-c3ccccc3)c(C)c(C#N)c3nc(C(=O)N(C)CCF)oc23)C1 [Example 134, 4-Cyano-N-(2-fluoroethyl)-N,5-dimethyl-7-[(3S)-3-(methylamino)pyrrolidin-1-yl]-6-phenyl-1,3-benzoxazole-2-carboxamide] | 0.5 (≈ 1.15 µM) | 0.5 (≈ 1.15 µM) | 0.125 (≈ 0.287 µM) |  |  | 
21 | CN[C@H]1CCN(c2c(-c3ccccc3)c(CF)c(C#N)c3nc(C4CC4)oc23)C1 [Example 140, 2-Cyclopropyl-5-fluoromethyl-7-[(3S)-3-(methylamino)pyrrolidin-1-yl]-6-phenyl-1,3-benzoxazole-4-carbonitrile] | 0.5 (≈ 1.28 µM) | 0.5 (≈ 1.28 µM) | 0.125 (≈ 0.32 µM) |  |  | 
22 | Cc1c(-c2ccsc2)c(N2CC[C@H](N(C)C)C2)c2oc(C3CC3)nc2c1C#N [Example 144-1, 2-Cyclopropyl-7-[(3S)-3-(dimethylamino)pyrrolidin-1-yl]-5-methyl-6-(thiophen-3-yl)-1,3-benzoxazole-4-carbonitrile] | 0.25 (≈ 0.637 µM) | 0.25 (≈ 0.637 µM) | 0.032 (≈ 0.0815 µM) |  |  | 
23 | Cc1c(-c2cc(F)ccc2F)c(N2CC[C@H](N(C)C)C2)c2oc(C3CC3)nc2c1C#N [Example 144-5, 2-Cyclopropyl-6-(2,5-difluorophenyl)-7-[(3S)-3-(dimethylamino)pyrrolidin-1-yl]-5-methyl-1,3-benzoxazole-4-carbonitrile] | 0.25 (≈ 0.592 µM) | 0.125 (≈ 0.296 µM) | 0.032 (≈ 0.0757 µM) |  |  | 
24 | COc1cccc(-c2c(C)c(C#N)c3nc(C4CC4)oc3c2N2CC[C@H](N(C)C)C2)c1 [Example 144-11, 2-Cyclopropyl-7-[(3S)-3-(dimethylamino)pyrrolidin-1-yl]-6-(3-methoxyphenyl)-5-methyl-1,3-benzoxazole-4-carbonitrile] | 0.5 (≈ 1.2 µM) | 0.25 (≈ 0.6 µM) | 0.125 (≈ 0.3 µM) |  |  | 
